Data on 6 molecules can be found in paper PMC4805779, “The Ascaris suum nicotinic receptor, ACR-16, as a drug target: Four novel negative allosteric modulators from virtual screening” (International Journal for Parasitology: Drugs and Drug …, 2016).

One assay relates to C. elegans strain N2. Put plainly: C. elegans L4 larvae motility (thrashing) in M9 buffer. It counts as in vivo, Caenorhabditis elegans. The following applies: for Effect on locomotion of worms vs negative control: 100 μM, 0-20 min. The protocol: The wild-type C. elegans strain N2 were obtained from the Caenorhabditis Genetics Center (University of Minnesota, MN, USA). […] We counted the number of worms with normal motility in M9 buffer with diluted drugs from the stock solutions (≤1% DMSO) at 0, 5, 10, 15 and 20 min. Five replicates were applied for each treatment. Motility between negative control (1% DMSO, final concentration) and drug treated worms were compared at each time point using student t-test.

For assay [1], the target named is T1, Asu-ACR-16 (Ascaris suum, UniProt F1KYJ9).
T1 construct: Full-length Asu-acr-16 cDNA was amplified with the forward primer; expressed in transfected cells; host or cells: Xenopus laevis oocytes injected with Asu-acr-16 cRNA plus Asu-ric-3 cRNA
T1 sequence (F1KYJ9 1-504): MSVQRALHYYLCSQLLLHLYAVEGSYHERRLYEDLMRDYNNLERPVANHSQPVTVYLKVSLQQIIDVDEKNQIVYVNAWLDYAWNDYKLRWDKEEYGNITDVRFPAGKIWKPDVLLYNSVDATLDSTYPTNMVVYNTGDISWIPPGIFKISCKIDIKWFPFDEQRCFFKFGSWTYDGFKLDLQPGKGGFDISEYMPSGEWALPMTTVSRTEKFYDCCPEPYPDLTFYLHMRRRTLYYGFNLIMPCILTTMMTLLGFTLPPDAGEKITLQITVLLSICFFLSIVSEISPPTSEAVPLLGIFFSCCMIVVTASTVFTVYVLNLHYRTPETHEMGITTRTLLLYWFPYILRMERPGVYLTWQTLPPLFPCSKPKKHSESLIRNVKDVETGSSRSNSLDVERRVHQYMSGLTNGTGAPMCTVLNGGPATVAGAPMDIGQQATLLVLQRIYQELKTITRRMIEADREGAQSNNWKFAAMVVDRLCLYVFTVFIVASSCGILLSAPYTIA
The experiment in a line: cell-based. It is filed as cell-based. On the procedure:
(§1) We used two-electrode voltage-clamp electrophysiology to record the inward current generated by the activated Asu-ACR-16 receptors expressed in X. laevis oocytes. 100 μM BAPTA-AM (final concentration) was added into the oocyte incubation solution 4 h prior to recording, to prevent the current produced by the endogenous calcium-activated chloride channels during recording. An Axoclamp 2B amplifier (Molecular Devices, CA, USA) was used for recording and oocytes were held at −60 mV. A PC computer with software Clampex 9.2 (Molecular Devices, CA, USA) was used to acquire the recording data. The microelectrodes used to measure current in oocytes were pulled on a Flaming/Brown horizontal electrode puller (Model P-97, Sutter Instruments), filled with 3M KCl and had resistances of 20–30 MΩ. The microelectrode tips were broken back carefully with Kimwipes (Wilmington, NC, USA) to reduce the resistance to 2–5 MΩ. […] Oocytes were placed into a tiny groove of the narrow oocyte recording chamber.
(§2) 100 μM acetylcholine was applied initially for 10 s as a control to check the viability of the oocytes and Asu-ACR-16 expression for all the recordings. Recording solution was then used to wash out the drug from the oocytes for 2–3 min before next application of drug perfusion.
(§3) The data from electrophysiological recordings were analyzed using Clampfit 9.2 (Molecular Devices, CA, and USA) and GraphPad Prism 5.0 (Graphpad Software Inc., CA, USA). […] Concentration-response relationships or concentration-inhibition (%) relationships were analyzed by fitting data points into the Hill equation, with at least four replicates of each experiment set.

The target in assay [2] is T1, Asu-ACR-16. Put plainly: cell-based. The following applies: for Hill slope (nH): inhibitory concentration-response vs 100 μM ach; for Inhibitionmax (maximum inhibition): of currents elicited by 100 μM ach. It is filed as cell-based. The protocol:
The nanoject II microinjector (Drummond Scientific, PA, USA) was used to injected the cRNA mixture into the animal pole of the de-folliculated X. laevis oocyte (Ecocyte Bioscience, Austin, TX, USA).
as §1, §2, §3

Setting [3] is: inhibition of currents elicited by 100 μM ach, oocytes held at −60 mV, mean ± S.E.M., read-out: IC50.

Each structure is given as a SMILES string. Counter-ions that a name gives are not always drawn. Like-named read-outs stand apart in the source and are kept apart here. A value given as a limit tells only on which side of the number the result lay.

As for `c1ccc([C@H]2CN3CCSC3=N2)cc1` [levamisole, Levamisole hydrochloride], the “Time without recovery of normal motility” value in the assay on C. elegans strain N2 (L4 larvae, 30 μM) is reported as above 24 h.

A word on the IC50: it is the concentration at which inhibition is half-maximal. For `CC(C)(C)[C@]1(O)CCN2C[C@H]3c4ccccc4CCc4cccc(c43)[C@@H]2C1` [(+)-butaclamol Cl, (+)-butaclamol hydrochloride], the “Hill slope (nH) of ach curve” value at Asu-ACR-16 [1] (in presence of 1 μM hit) worked out at 9.64 ± 4.14; at Asu-ACR-16 [1] (in presence of 3 μM hit) it was 12.75 ± 3.63. In addition, the IC50 against Asu-ACR-16 [2] came out at 9.85 ± 2.37 µM. Moreover, at Asu-ACR-16 [2] (mean ± S.E.M.), the “Hill slope (nH)” value turned out to be 1.34 ± 0.29. The “Inhibitionmax (maximum inhibition)” value on Asu-ACR-16 [2] (mean ± S.E.M.) amounted to 79.53 ± 12.41%.

With `Cl.N#Cc1ccc2c(c1)CCN(CC[C@H]1CC[C@H](NC(=O)c3ccnc4ccccc34)CC1)C2.O` [SB-277011-A, SB-277011-A hydrochloride hydrate], the “Time to recovery of normal motility” value in the assay with C. elegans strain N2 (L4 larvae, 30 μM) was at most 20 min. For the same molecule, in the assay on C. elegans strain N2 (L4 larvae, 30 μM, 5 min, p < 0.01), the “Drop in number of normal worms with thrashing-like movement” value came out at 60%. Further, the “Number of worms with motility that appeared normal” value with C. elegans strain N2 (L4 larvae, 30 μM, 10 min, p < 0.05) was 50%; with C. elegans strain N2 (L4 larvae, 30 μM, 15 min, p > 0.05), 85%; in the assay on C. elegans strain N2 (L4 larvae, 30 μM, after 20 min) it was “returned to near negative control values”. For the same molecule, the “Effect on motility of adult C. elegans compared with larvae” value with C. elegans strain N2 (adult worms) is “less effective on adult C. elegans”.

Take `CC(=O)OCC[N+](C)(C)C` [ach, acetylcholine chloride]: the “Hill slope (nH)” value on Asu-ACR-16 [1] (ach alone (control, absence of hits)) amounted to 3.05 ± 0.07. Besides, the Emax on Asu-ACR-16 [1] (read-out: Imax (maximum response)) turned out to be 97.5 ± 1.19%.

Regarding `O=C(OCC1c2ccccc2-c2ccccc21)N1CCC(C(=O)O)(c2ccc3ccccc3c2)CC1` [fmoc-2, fmoc-4-(naphthalen-2-yl)-piperidine-4-carboxylic acid], the “Hill slope (nH) of ach curve” value at Asu-ACR-16 [1] (in presence of 3 μM hit) is on record as 2.54 ± 0.18. Further, the IC50 at Asu-ACR-16 [2] (setting [3]) stood at 16.7 ± 1.95 µM. Moreover, on Asu-ACR-16 [2] (mean ± S.E.M.), the “Hill slope (nH)” value is 1.22 ± 0.17 and the “Inhibitionmax (maximum inhibition)” value came out at 80.34 ± 10.32%. Further, in the assay on C. elegans strain N2 (L4 larvae), the “Effect on locomotion of worms vs negative control” value is given as “No visual effects”.

In the case of `O=C(OCC1c2ccccc2-c2ccccc21)N1CCC(C(=O)O)(c2cccc3ccccc23)CC1` [fmoc-1, fmoc-4-(naphthalen-1-yl)-piperidine-4-carboxylic acid], the “Hill slope (nH) of ach curve” value on Asu-ACR-16 [1] (in presence of 3 μM hit) was determined as 1.76 ± 0.21. The IC50 on Asu-ACR-16 [2] (setting [3]) turned out to be 10 ± 1.38 µM. Further, on Asu-ACR-16 [2] (mean ± S.E.M.), the “Hill slope (nH)” value is listed as 1.97 ± 0.37 and the “Inhibitionmax (maximum inhibition)” value is 82.49 ± 4.74%. Besides, the “Effect on locomotion of worms vs negative control” value with C. elegans strain N2 (L4 larvae) is given as “No visual effects”.
